Experimental data from article PMC12138128 (Acta Pharmaceutica Sinica. B, 2025).
pIC50: −log10 of the molar value.

Key:
[1] = cited from earlier work
[2] = tested on: U87 cells; assay: CCK-8 cell proliferation assay, U87; assay type: cell-based; settings: Homo sapiens, U-87 MG, 72 h, CCK-8, 72 h; read-out: IC50, U87 proliferation inhibition
Experimental: The effects on cell proliferation were measured using a CCK-8 assay kit. A total of 3 × 10^3 cells were seeded per well in 96-well plates and incubated for 24, 48, or 72 h after drug administration. After 10 μL of CCK-8 solution was added to each well and incubated at 37 °C for 1–2 h, the absorbance at OD450 was read with an enzyme marker. The data were recorded and analyzed by GraphPad Prism software (version 8.0.2). For the cell growth assay, 2 × 10^3 cells were seeded per well in 96-well plates (n = 5). Ten microlitres of CCK-8 reagent was added at a fixed time every day, and the OD450 was read after 2 h. The statistical data were analyzed, and cell growth curves were plotted after a continuous period of 7 days.

[3] = tested on: NAD^+ in U87 cells; assay: Measurement of NAD+ levels in U87 cells; assay type: cell-based, human; settings: 10 nmol/L, compared with PF403
Text: NAD^+ is a coenzyme found in all cells and consists of both NAD^+ (oxidized) and NADH (reduced) forms. NAD^+ can be used to transfer electrons during redox reactions and as a substrate used by many enzymes to participate in intracellular reactions. We used an NAD^+/NADH assay kit (Beyotime, S0175, Shanghai, China) based on the WST-8 method to determine the NAD^+/NADH content. Cells in 6-well plates were collected and lysed with NAD^+/NADH extract on ice, and the supernatant was used as the sample to be tested. A control solution with a gradient concentration of NADH was prepared with a 10 mmol/L NADH standard. The supernatant from the sample was first aspirated and used to determine the total amount of NAD^+ and NADH. Subsequently, the sample was heated at 60 °C for 30 min to remove the NAD^+, after which the supernatant was collected to determine the NADH concentration. Ethanol dehydrogenase was added to each well, and the plate was incubated at 37 °C in the dark for 10 min. Then, 10 μL of chromogenic solution was added, and the plate was incubated for 30 min. Afterward, the absorbance at 450 nm was measured, and the content was calculated by comparison with the standard curve. The content of NAD^+ was calculated by subtracting the content of NADH from the total amount.

[4] = tested on: U87 orthotopic glioma; design: method as in PMID 27495899; settings: 6 mg/kg, 11 days of continuous treatment; cited from earlier work
[5] = tested on: shNAMPT-2 U87 orthotopic glioma; assay: Orthotopic glioma model with shNAMPT-2 U87 cells, MRI; assay type: in vivo, nude mice (BALB/c-nude)
Experimental: For the orthotopic glioma model, six-week-old female athymic nude mice (BALB/c-nude) were obtained from GemPharmatech (Beijing, China). Anesthetize nude mice with tribromoethanol at a concentration of 20 mg/mL and a dosage of 0.2 mL/10 g body weight. U87 cells (shNAMPT-2, 5 × 10^5 cells) suspended in 5 μL PBS buffer were injected intracranially into nude mice using stereotaxic restraint. The location was bregma +1.0 mm, right lateral 2.0 mm, profundity 3.5 mm, and return to 3.0 mm. After 3 days, 6 mg/kg of CAT3 was orally administered once daily for 11 days. Intracranial tumors were viewed using MRI. The body weights of mice were monitored once every 2 or 3 days. The feeding and handling of animals have been approved by the Animal Care & Welfare Committee Institute of Materia Medica, CAMS & PUMC (Approval numbers: 00008485, 00008487, 00008963).
After 11 days of treatment, anatomical images of the intracranial tumor were acquired using an MRI scanner (PharmaScan 70/16 US, Bruker, Switzerland) on the nude mice. The parameters used in the scans to optimize gray/white matter contrast were as follows: a T2_TurboRARE, with TR/TE = 2795/35, 4 averages, 22 × 22 field-of-view, and 0.5 mm slice thickness. The scanning of all brains was completed in 25 sessions. The tumor volume was calculated using the sum of the areas in all images multiplied by the thickness of each slice (0.5 mm).

[6] = tested on: U87 xenograft; assay: U87 xenograft model in nude mice; assay type: in vivo, nude mice (BALB/c-nude); settings: for inhibitory effect in terms of tumor weight / inhibitory effect based on tumor volume: i.g.; for inhibitory effect in terms of tumor weight: 14th day; for inhibitory effect based on tumor volume: daily for 14 days
Experimental: (§1) Six-week-old female athymic nude mice (BALB/c-nude) were obtained from GemPharmatech (Beijing, China). U87 cells (3 × 10^6 cells per animal) were injected into the rear right armpit of nude mice to generate xenograft tumors. Seven to ten days after injection, the tumors were visible to the naked eye (approximately 100 mm^3), and the mice were randomized into five groups (12 mice per group). The PF403 treatment groups were administered different doses of PF403 once daily via intragastric gavage (low dose, 3 mg/kg; median dose, 6 mg/kg; high dose, 12 mg/kg). The positive control drug used was temozolomide (50 mg/kg, i.g., Days 1–5), the first line of glioma treatment, while the control group was treated with 0.5% CMC-Na solution as a control. To validate the NAMPT knockdown group, we established the following groups: a control group (vehicle control, i.g., once daily, n = 12), a shNAMPT-2 knockdown group (vehicle control, i.g., once daily, n = 12), and a shNAMPT-2 knockdown group treated with CAT3 (6 mg/kg, i.g., once daily, n = 12). The body weights of the nude mice were recorded every two days, and the tumor weights were recorded on the 14th day after the mice were sacrificed.
(§2) IHC was performed following standard protocols. Briefly, the standard protocol for Ki67 immunohistochemical staining involved tissue preparation, deparaffinization and rehydration, antigen retrieval, blocking, primary and secondary antibody incubations, visualization with DAB, counterstaining, mounting, microscopic examination, and image acquisition. To assess proliferation rates in tissue samples, the area of Ki67 expression was used for comparison in each group.

[7] = tested on: shNAMPT-2 U87 xenograft; assay: shNAMPT-2 U87 (NAMPT-knockdown) xenograft model; assay type: in vivo, nude mice (BALB/c-nude)
Experimental: as §1, §2

COc1ccc2c3c(c4cc(OC)c(OC)cc4c2c1)CN1CCC[C@H]1C3 [CAT, (+)-Deoxytylophorinine]
blood–brain barrier penetration [1]: effectively cross the blood–brain barrier
pIC50 [2]: 7.63

O=C(/C=C/c1cccnc1)NCCCCC1CCN(C(=O)c2ccccc2)CC1 [FK866, (E)-Daporinad]
inhibitory effect on intracellular NAD^+ content [3]: better inhibitory effect on intracellular NAD^+ content than PF403

(13aS)-3-pivaloyloxyl-6,7-dimethoxyphenanthro[9,10-b] indolizidine [CAT3]
inhibitory effect, orthotopic glioma model [4]: ~40%
body weight of nude mice ([5]; early and middle stages of treatment): slight decrease in the body weight
NAMPT knockdown tumor volume (MRI) ([5]; treatment group, 6 mg/kg orally once daily for 11 days, n = 12): 24.05 ± 13.99 mm^3
inhibitory effect in terms of tumor weight ([6]; 6 mg/kg): 55.37%
inhibitory effect based on tumor volume ([6]; 6 mg/kg): ~58.41%
inhibitory effect in terms of tumor weight ([6]; 12 mg/kg): 63.18%
inhibitory effect based on tumor volume ([6]; 12 mg/kg): ~67.59%
expression of Ki67 in tumor (IHC) ([6]; after treatment, U87 xenograft): reduced
body weight of the nude mice ([6]; due to gastrointestinal reaction): decreased slightly in the first week and then gradually recovered
inhibitory effect on cell proliferation by tumor volume or weight ([7]; 6 mg/kg, i.g., daily for 14 days): no significant inhibitory effect
expression of Ki67 in tumor (IHC) ([7]; effective dose (6 mg/kg), NAMPT-knockdown xenograft): not affected
body weight ([7]; over 14 days, gastrointestinal side effects): slight decrease in body weight
